Data reported in patent publication US7279494B2, “Antimicrobial [3.1.0] bicyclohexylphenyl-oxazolidinone derivatives and analogues” (Pfizer Inc., priority 2003, dated 2007).
Converted amounts (≈) assume the structure as drawn.

Key:
Assay type in all cases: cell-based
S. aureus UC9213 = experiment: MIC by standard agar dilution, S. aureus UC9213; settings: Staphylococcus aureus, UC9213, Mueller Hinton agar, incubated overnight at 35° C.
Source text: (§1) The in vitro activity of compounds of the subject invention may be assessed by standard testing procedures such as the determination of minimum inhibitory concentration (MIC) by agar dilution as described in “Approved Standard. Methods for Dilution Antimicrobial Susceptibility Tests for Bacteria that Grow Aerobically,” 3rd ed., published 1993 by the National Committee for Clinical Laboratory standards, Villanova, Pa., USA.
(§2) The in vitro MICs of test compounds may be determined by a standard agar dilution method. A stock drug solution of each analog is prepared in a preferred solvent, usually DMSO:H2O (1:3). Serial 2-fold dilutions of each sample are made using 1.0 mL aliquots of sterile distilled water. To each 1.0 mL aliquot of drug is added 9 mL of molten Mueller Hinton agar medium. The drug-supplemented agar is mixed, poured into 15×100 mm petri dishes, and allowed to solidify and dry prior to inoculation.
(§3) Vials of each of the test organisms are maintained frozen in the vapor phase of a liquid nitrogen freezer. Test cultures are grown overnight at 35° C. on the medium appropriate for the organism. Colonies are harvested with a sterile swab, and cell suspensions are prepared in Trypticase Soy broth (TSB) to equal the turbidity of a 0.5 McFarland standard. A 1:20 dilution of each suspension is made in TSB. The plates containing the drug supplemented agar are inoculated with a 0.001 mL drop of the cell suspension using a Steers replicator, yielding approximately 10^4 to 10^5 cells per spot. The plates are incubated overnight at 35° C.
(§4) Following incubation the Minimum Inhibitory Concentration (MIC μg/mL), the lowest concentration of drug that inhibits visible growth of the organism, is read and recorded.

S. pneumoniae UC9912 = experiment: MIC by standard agar dilution, S. pneumoniae UC9912; settings: Streptococcus pneumoniae, UC9912, Mueller Hinton agar, incubated overnight at 35° C.
Source text: as §1, §2, §3, §4

H. influenzae 30063 = experiment: MIC by standard agar dilution, H. influenzae 30063; settings: Haemophilus influenzae, 30063, agar dilution, Mueller Hinton agar, incubated overnight at 35° C.; read-out: H. influenzae 30063 MIC
Source text: as §1, §2, §3, §4

| Structure (SMILES) | MIC (S. aureus UC9213) | MIC (S. pneumoniae UC9912) | MIC (H. influenzae 30063) |
| --- | --- | --- | --- |
| CC(=O)NC[C@H]1CN(c2ccc([C@H]3[C@@H]4CN(C(=O)[C@@H]5CCCO5)C[C@@H]43)c(F)c2)C(=O)O1 [Example 42, N-[((5S)-3-{3-fluoro-4-[exo-(1R,5S)-3-(tetrahydrofaran-2-(S)-carbonyl)-3-azabicyclo[3.1.0]hex-6-yl]phenyl}-2-oxo-1,3-oxazolidin-5-yl)methyl]acetamide] | 8 µg/mL (≈ 18.5 µM) | 4 µg/mL (≈ 9.27 µM) | 32 µg/mL (≈ 74.2 µM) |
| CC(=O)NC[C@H]1CN(c2ccc([C@H]3[C@@H]4CN(C(N)=O)C[C@@H]43)c(F)c2)C(=O)O1 [Example 10, exo-(1R,5S)-6-(4-{(5S)-5-[(acetylamino)methyl]-2-oxo-1,3-oxazolidin-3-yl}-2-fluorophenyl)-3-azabicyclo[3.1.0]hexane-3-carboxamide] | 2 µg/mL (≈ 5.31 µM) | 0.5 µg/mL (≈ 1.33 µM) | 4 µg/mL (≈ 10.6 µM) |
| CC(=O)NC[C@H]1CN(c2ccc([C@H]3[C@@H]4CN(C(=O)[C@H](C)O)C[C@@H]43)c(F)c2)C(=O)O1 [Example 29, N-[((5S)-3-{3-fluoro-4-[exo-(1R, 5S)-3-(2-(S)-hydroxypropanoyl)-3-azabicyclo[3.1.0]hex-6-yl]phenyl}-2-oxo-1,3-oxazolidin-5-yl)methyl]acetamide] | 4 µg/mL (≈ 9.87 µM) | 2 µg/mL (≈ 4.93 µM) | 16 µg/mL (≈ 39.5 µM) |
| CC(=O)NC[C@H]1CN(c2ccc([C@H]3[C@@H]4COC[C@@H]43)c(F)c2)C(=O)O1 [Example 4, N-[((5S)-3-{3-fluoro-4-[exo-(1R,5S)-3-oxabicyclo[3.1.0]hex-6-yl]phenyl}-2-oxo-1,3-oxazolidin-5-yl)methyl]acetamide] | 4 µg/mL (≈ 12 µM) | 0.5 µg/mL (≈ 1.5 µM) | 4 µg/mL (≈ 12 µM) |
| CCC(=O)NC[C@H]1CN(c2ccc([C@H]3[C@@H]4CN(C(N)=O)C[C@@H]43)c(F)c2)C(=O)O1 [Example 23, exo-(1R,5S)-6-(4-{(5S)-5-[(propanoylamino)methyl]-2-oxo-1,3-oxazolidin-3-yl}-2-fluorophenyl)-3-azabicyclo[3.1.0]hexane-3-carboxamide] | 1 µg/mL (≈ 2.56 µM) | 0.25 µg/mL (≈ 0.64 µM) | 4 µg/mL (≈ 10.2 µM) |
| CCNC(=O)N1C[C@@H]2[C@H](C1)[C@H]2c1ccc(N2C[C@H](CNC(=O)CC)OC2=O)cc1F [Example 25, exo-(1R,5S)-6-(4-{(5S)-5-[(propanoylamino)methyl]-2-oxo-1,3-oxazolidin-3-yl}-2-fluorophenyl)-3-azabicyclo[3.1.0]hexane-3-ethylcarboxamide] | 8 µg/mL (≈ 19.1 µM) | 4 µg/mL (≈ 9.56 µM) | 32 µg/mL (≈ 76.5 µM) |
| CCC(=O)NC[C@H]1CN(c2cc(F)c([C@H]3[C@@H]4C[S+]([O-])C[C@@H]43)c(F)c2)C(=O)O1 (stereo partly drawn) [Example 58, N-[((5S)-3-{3,5-difluoro-4-[exo-(1R,5S)-3-oxido-3-thiabicyclo[3.1.0]hex-6-yl]phenyl}-2-oxo-1,3-oxazolidin-5-yl)methyl]propanamide] | 1 µg/mL (≈ 2.51 µM) | 1 µg/mL (≈ 2.51 µM) | 2 µg/mL (≈ 5.02 µM) |
| O=C(NC[C@H]1CN(c2ccc([C@H]3[C@@H]4CS(=O)(=O)C[C@@H]43)c(F)c2)C(=O)O1)C1CC1 [Example 53, N-[((5S)-3-{3-fluoro-4-[exo-(1R,5S)-3,3-dioxido-3-thiabicyclo[3.1.0]hex-6-yl]phenyl}-2-oxo-1,3-oxazolidin-5-yl)methyl]cyclopropanecarboxamide] | 4 µg/mL (≈ 9.79 µM) | 2 µg/mL (≈ 4.9 µM) | 4 µg/mL (≈ 9.79 µM) |
| N#CCC(=O)NC[C@H]1CN(c2ccc([C@H]3[C@@H]4C[S+]([O-])C[C@@H]43)c(F)c2)C(=O)O1 (stereo partly drawn) [Example 68, 2-cyano-N-[((5S)-3-{3-fluoro-4-[exo-(1R,5S)-3-oxido-3-thiabicyclo[3.1.0]hex-6-yl]phenyl}-2-oxo-1,3-oxazolidin-5-yl)methyl]acetamide] | 4 µg/mL (≈ 10.2 µM) | 1 µg/mL (≈ 2.55 µM) | 8 µg/mL (≈ 20.4 µM) |
| CC(=O)NC[C@H]1CN(c2ccc([C@H]3[C@@H]4CN(C(=O)CO)C[C@@H]43)c(F)c2)C(=O)O1 [Example 5, N-[((5S)-3-{3-fluoro-4-[exo-(1R,5S)-3-glycoloyl-3-azabicyclo[3.1.0]hex-6-yl]phenyl}-2-oxo-1,3-oxazolidin-5-yl)methyl]acetamide] | 2 µg/mL (≈ 5.11 µM) | 0.25 µg/mL (≈ 0.639 µM) | 4 µg/mL (≈ 10.2 µM) |
| CC(=O)NC[C@H]1CN(c2ccc([C@H]3[C@@H]4CN(CCO)C[C@@H]43)c(F)c2)C(=O)O1 [Example 47, N-[((5S)-3-{3-fluoro-4-[exo-(1R,5S)-3-(2-hydroxyethyl)-3-azabicyclo[3.1.0]hex-6-yl]phenyl}-2-oxo-1,3-oxazolidin-5-yl)methyl]acetamide] | 4 µg/mL (≈ 10.6 µM) | 1 µg/mL (≈ 2.65 µM) | 8 µg/mL (≈ 21.2 µM) |
